Measurements from PubChem BioAssay AID248 (DTP/NCI, 2004).
“And” between values parts separate entries of the source, which are not always exact repeats. Equal entries are not always repeated. Toxic doses and inconclusive results are not listed. Cut-off read from the data, not from the text of the source: active = T/C of 150% or more; inactive = T/C below 125%.

Test system: L1210 leukemia ip in BDF1 mice, survival T/C
Assay: NCI In Vivo Anticancer Drug Screen. Data for tumor model L1210 Leukemia (intraperitoneal) in B6D2F1 (BDF1) mice
Details: endpoint: mean survival time, higher = longer survival
Method in brief: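 Value reflects the ratio of survival in compound-treated mice to survival in vehicle-treated controls, with both groups carrying the same transplanted tumor.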

[1] = dose: 100.0 mg/kg/injection, schedule: Q04DX003 (ip), vehicle: saline with Tween-80
[2] = dose: 200.0 mg/kg/injection, schedule: Q04DX003 (ip), vehicle: saline with Tween-80
[3] = dose: 400.0 mg/kg/injection, schedule: Q04DX003 (ip), vehicle: saline with Tween-80
[4] = dose: 100.0 mg/kg/injection, schedule: Q01DX001 (ip), vehicle: saline
[5] = dose: 200.0 mg/kg/injection, schedule: Q01DX001 (ip), vehicle: saline
[6] = dose: 400.0 mg/kg/injection, schedule: Q01DX001 (ip), vehicle: saline
[7] = dose: 100.0 mg/kg/injection, schedule: Q04DX003 (ip), vehicle: Klucel (hydroxypropylcellulose) (HPC)
[8] = dose: 100.0 mg/kg/injection, schedule: Q01DX009 (ip), vehicle: Klucel (hydroxypropylcellulose) (HPC)
[9] = dose: 200.0 mg/kg/injection, schedule: Q01DX009 (ip), vehicle: Klucel (hydroxypropylcellulose) (HPC)
[10] = dose: 400.0 mg/kg/injection, schedule: Q01DX009 (ip), vehicle: Klucel (hydroxypropylcellulose) (HPC)
[11] = dose: 100.0 mg/kg/injection, schedule: Q01DX001 (ip), vehicle: Klucel (hydroxypropylcellulose) (HPC)
[12] = dose: 200.0 mg/kg/injection, schedule: Q01DX001 (ip), vehicle: Klucel (hydroxypropylcellulose) (HPC)

Measured: T/C

Cc1nc2cnc(N)nc2nc1C
inactive: dose: 16.0 mg/kg/injection, schedule: Q01DX Z (ip), vehicle: methylcellulose (MC) 97 % of control | dose: 31.0 mg/kg/injection, schedule: Q01DX Z (ip), vehicle: methylcellulose (MC) 97 % of control | dose: 62.0 mg/kg/injection, schedule: Q01DX Z (ip), vehicle: methylcellulose (MC) 109 % of control | dose: 100.0 mg/kg/injection, schedule: Q01DX001 (ip), vehicle: other 96 % of control | dose: 125.0 mg/kg/injection, schedule: Q01DX Z (ip), vehicle: methylcellulose (MC) 89 % of control and 90 % of control | dose: 200.0 mg/kg/injection, schedule: Q01DX001 (ip), vehicle: other 101 % of control | dose: 250.0 mg/kg/injection, schedule: Q01DX Z (ip), vehicle: methylcellulose (MC) 91 % of control | dose: 400.0 mg/kg/injection, schedule: Q01DX001 (ip), vehicle: other 98 % of control | dose: 500.0 mg/kg/injection, schedule: Q01DX Z (ip), vehicle: methylcellulose (MC) 93 % of control

ClCCOC(OCCCl)OCCCl
inactive: dose: 100.0 mg/kg/injection, schedule: Q01DX009 (ip), vehicle: saline with Tween-80 105 % of control | [1] 103 % of control | dose: 200.0 mg/kg/injection, schedule: Q01DX009 (ip), vehicle: saline with Tween-80 87 % of control | [2] 104 % of control | [3] 95 % of control

NC(=S)N=Nc1ccc(O)cc1
inactive: dose: 50.0 mg/kg/injection, schedule: Q01DX001 (ip), vehicle: saline 103 % of control | [4] 100 % of control | [5] 100 % of control | [6] 109 % of control

NC(=O)N/N=C1/CCN2CCCc3cccc1c32
inactive: dose: 12.5 mg/kg/injection, schedule: Q01DX009 (ip), vehicle: Klucel (hydroxypropylcellulose) (HPC) 95 % of control | dose: 25.0 mg/kg/injection, schedule: Q01DX009 (ip), vehicle: Klucel (hydroxypropylcellulose) (HPC) 103 % of control | dose: 25.0 mg/kg/injection, schedule: Q04DX003 (ip), vehicle: Klucel (hydroxypropylcellulose) (HPC) 103 % of control | dose: 50.0 mg/kg/injection, schedule: Q01DX009 (ip), vehicle: Klucel (hydroxypropylcellulose) (HPC) 93 % of control | dose: 50.0 mg/kg/injection, schedule: Q04DX003 (ip), vehicle: Klucel (hydroxypropylcellulose) (HPC) 97 % of control | [7] 95 % of control

CCCCCC(CN(C)C)C(=O)/C=C/c1ccccc1 (stereo not drawn)
inactive: dose: 50.0 mg/kg/injection, schedule: Q01DX009 (sc), vehicle: other 95 % of control | dose: 100.0 mg/kg/injection, schedule: Q01DX001 (sc), vehicle: steriod suspending solution 93 % of control | dose: 100.0 mg/kg/injection, schedule: Q01DX009 (sc), vehicle: other 102 % of control | dose: 100.0 mg/kg/injection, schedule: Q04DX003 (sc), vehicle: other 101 % of control | dose: 200.0 mg/kg/injection, schedule: Q01DX001 (sc), vehicle: steriod suspending solution 93 % of control | dose: 200.0 mg/kg/injection, schedule: Q04DX003 (sc), vehicle: other 90 % of control | dose: 400.0 mg/kg/injection, schedule: Q01DX001 (sc), vehicle: steriod suspending solution 100 % of control

NC(=S)NNC(=O)Nc1ccc(F)c(Cl)c1
inactive: dose: 12.5 mg/kg/injection, schedule: Q01DX009 (ip), vehicle: other 94 % of control | dose: 25.0 mg/kg/injection, schedule: Q01DX009 (ip), vehicle: other 93 % of control | dose: 50.0 mg/kg/injection, schedule: Q01DX009 (ip), vehicle: other 96 % of control

NC(=O)N/N=C/C1CCC=CO1 (stereo not drawn)
inactive: [8] 94 % of control | [9] 102 % of control | [10] 103 % of control

Cl[CH2][Sn]([c]1ccccc1)([c]1ccccc1)[c]1ccccc1
inactive: dose: 6.25 mg/kg/injection, schedule: Q01DX009 (ip), vehicle: saline with Tween-80 113 % of control | dose: 6.25 mg/kg/injection, schedule: Q01DX009 (ip), vehicle: saline 93 % of control | dose: 12.5 mg/kg/injection, schedule: Q01DX009 (ip), vehicle: saline with Tween-80 106 % of control | dose: 12.5 mg/kg/injection, schedule: Q01DX009 (ip), vehicle: saline 101 % of control | dose: 25.0 mg/kg/injection, schedule: Q01DX009 (ip), vehicle: saline with Tween-80 101 % of control

O=C(OCc1ccccc1CN1CCCCC1)c1ccc(Br)cc1
inactive: dose: 25.0 mg/kg/injection, schedule: Q04DX002 (ip), vehicle: Klucel (hydroxypropylcellulose) (HPC) 115 % of control | dose: 50.0 mg/kg/injection, schedule: Q04DX002 (ip), vehicle: Klucel (hydroxypropylcellulose) (HPC) 109 % of control | dose: 100.0 mg/kg/injection, schedule: Q04DX002 (ip), vehicle: Klucel (hydroxypropylcellulose) (HPC) 105 % of control

COc1ccccc1N=Nc1c(O)n(-c2ccccc2OC)c(=S)n(-c2ccccc2)c1=O
inactive: [11] 96 % of control | [12] 94 % of control

CCCCOC(=O)c1ccc(O)c(OC)c1
inactive: [4] 100 % of control | [5] 105 % of control | [6] 102 % of control

CCCCCCCCCCNC(=O)CI
inactive: [4] 100 % of control | [5] 94 % of control

COc1ccc(OC)c(NC(=O)Nc2ccc([N+](=O)[O-])cc2OC)c1
inactive: [8] 96 % of control | [9] 93 % of control | [10] 94 % of control

Cc1ccc(Cl)c(NC(=O)c2ccc(C(=O)Nc3cc(C)ccc3Cl)cc2)c1
inactive: [8] 87 % of control | [9] 88 % of control | [10] 91 % of control

N#CC(/C=C/c1ccccc1)Nc1ccccc1N (stereo not drawn)
inactive: dose: 100.0 mg/kg/injection, schedule: Q01DX001 (ip), vehicle: saline with Tween-80 91 % of control | dose: 200.0 mg/kg/injection, schedule: Q01DX001 (ip), vehicle: saline with Tween-80 94 % of control | dose: 400.0 mg/kg/injection, schedule: Q01DX001 (ip), vehicle: saline with Tween-80 86 % of control

N#CC(C#N)=Cc1cc2c3c(c1)CCCN3CCC2
inactive: dose: 50.0 mg/kg/injection, schedule: Q04DX003 (ip), vehicle: saline with Tween-80 103 % of control | [1] 109 % of control | [2] 92 % of control | [3] 98 % of control

CC1(C)C2CCC1(C)C(O)C2=O (stereo not drawn)
inactive: dose: 75.0 mg/kg/injection, schedule: Q01DX009 (ip), vehicle: saline 95 % of control | dose: 150.0 mg/kg/injection, schedule: Q01DX009 (ip), vehicle: saline 92 % of control | dose: 300.0 mg/kg/injection, schedule: Q01DX009 (ip), vehicle: saline 95 % of control

O=C(c1ccccc1)C(Br)[N+](=O)[O-] (stereo not drawn)
inactive: [4] 100 % of control | [5] 103 % of control | [6] 96 % of control

COc1ccc(NC(=S)NC2CCCCC2)cc1
inactive: dose: 100.0 mg/kg/injection, schedule: Q04DX003 (ip), vehicle: other 94 % of control | dose: 200.0 mg/kg/injection, schedule: Q04DX003 (ip), vehicle: other 88 % of control | dose: 400.0 mg/kg/injection, schedule: Q04DX003 (ip), vehicle: other 90 % of control

ClC(Cl)(Cl)C(Cl)(Cl)OC(Cl)(Cl)C(Cl)(Cl)Cl
inactive: [11] 107 % of control | [7] 100 % of control | [12] 112 % of control | dose: 200.0 mg/kg/injection, schedule: Q04DX003 (ip), vehicle: Klucel (hydroxypropylcellulose) (HPC) 92 % of control | dose: 400.0 mg/kg/injection, schedule: Q01DX001 (ip), vehicle: Klucel (hydroxypropylcellulose) (HPC) 95 % of control | dose: 400.0 mg/kg/injection, schedule: Q04DX003 (ip), vehicle: Klucel (hydroxypropylcellulose) (HPC) 95 % of control

O=C(O)/C(Cc1cccc(=O)n1Cc1ccccc1)=N\O
inactive: dose: 75.0 mg/kg/injection, schedule: Q01DX001 (ip), vehicle: Klucel (hydroxypropylcellulose) (HPC) 97 % of control | dose: 150.0 mg/kg/injection, schedule: Q01DX001 (ip), vehicle: Klucel (hydroxypropylcellulose) (HPC) 97 % of control | dose: 300.0 mg/kg/injection, schedule: Q01DX001 (ip), vehicle: Klucel (hydroxypropylcellulose) (HPC) 94 % of control

Cc1[nH]nc2c(=S)[nH]c(=O)[nH]c12
inactive: dose: 75.0 mg/kg/injection, schedule: Q01DX001 (ip), vehicle: saline 92 % of control | dose: 150.0 mg/kg/injection, schedule: Q01DX001 (ip), vehicle: saline 96 % of control

CCCCCCCCC(CCCCCCCC)CC1CCC2CCCC21 (stereo not drawn)
inactive: dose: 75.0 mg/kg/injection, schedule: Q01DX001 (ip), vehicle: saline with Tween-80 93 % of control | dose: 150.0 mg/kg/injection, schedule: Q01DX001 (ip), vehicle: saline with Tween-80 90 % of control | dose: 300.0 mg/kg/injection, schedule: Q01DX001 (ip), vehicle: saline with Tween-80 90 % of control
